Results: patent US20250009834A1, “COMPOSITION OF BEVERAGE CONCENTRATE CONTAINING CITRIC ACID AND NATURAL ANTIOXIDANT” (priority 2021, published 2025)

Assay: CaOx aggregation inhibition (aggregation coefficient of seed COM crystals)
Settings: 200 μL sample added to 2 mL seed COM suspension, 37° C., 10 min; embodiment 100% concentration; BSA 1 mg/mL; citric acid positive control
Method: In the following in-vitro trials, all “%” marks represented percentages by weight. An embodiment of “100%” concentration was prepared by mixing 60 mL of a beverage concentrate of an exemplary composition (see Table 1 above) with 440 mL of distilled water, equivalent to a ratio of 0.136 parts of the exemplary composition to one part of water. An embodiment of a concentration lower than 100% was prepared by further diluting said embodiment of 100% concentration with distilled water by a conventionally known dilution means that is appropriate for food and beverages. All the mixtures concerned were conventionally mixed to achieve effective uniformity for food and beverages.
Seed calcium oxalate monohydrate (COM) crystals were prepared and diluted to 50 mg/mL in 0.05 M Tris/0.15 NaCl, pH 6.5. An embodiment having the 100% concentration, or bovine serum albumin (BSA) or distilled water (blank) (200 μL) was added to the freshly prepared working seed COM suspension (2 mL). After mixing, absorbance at 620 nm was measured as baseline (AT0). After incubating at 37° C. for 10 min. absorbance was measured again (AT10). The aggregation coefficient (AC) was calculated from: AC=((AT0−AT10)/10)×1,000. Higher AC value indicates higher COM aggregation.

| Compound | aggregation of seed COM crystals |
| --- | --- |
| O=C(O)CC(O)(CC(=O)O)C(=O)O [Citric acid] | strongly inhibited |
| bovine serum albumin [BSA] | did not |
